These results are taken from ChEMBL document CHEMBL5726833, “Heterocyclic compounds useful as pim kinase inhibitors” (2018).

Bounds are passed on as bounds.

Assay [1] has as its target Serine/threonine-protein kinase pim-1 (Homo sapiens, UniProt P11309). As to the kind of experiment: (§1) Enzyme Assay: Pim-1 and Pim-3 kinase assays—20 μL reactions were run in white 384 well polystyrene plates dotted with 0.8 μL compound/DMSO in the assay buffer (50 mM Tris, pH 7.5, 0.01% Tween-20, 5 mM mgCl2, 0.01% BSA, 5 mM DTT), containing 0.05 μM Biotin-labeled BAD peptide substrate (AnaSpec 62269), 1 mM ATP, and 2.5 pM (Pim-1, Invitrogen PV3503) or 1.25 pM (Pim-3, Millipore 14-738) enzyme for 1 h at 25° C. Reactions were stopped by addition of 10 μL STOP Buffer (150 mM Tris, pH=7.5, 150 mM NaCl, 75 mM EDTA, 0.01% Tween-20, 0.3% BSA,) supplemented with Phospho-Bad (Ser112) Antibody (Cell Signaling 9291) diluted 666-fold, and Streptavidin donor beads (PerkinElmer 6760002) along with Protein-A acceptor beads (PerkinElmer 6760137) at […] each. Supplementation of the STOP buffer with beads and stopping the reactions were done under reduced light. Prior to the stopping reactions STOP buffer with beads was preincubated for 1 h in the dark at room temperature. After stopping the reactions, plates were incubated for 1 h in the dark at room temperature before reading on a PHERAstar FS plate reader (BMG Labtech) under reduced light.

For assay [2], the target named is Serine/threonine-protein kinase pim-3 (Homo sapiens, UniProt Q86V86). The description is as §1.
Assay [3] deals with Serine/threonine-protein kinase pim-2 (Homo sapiens, UniProt Q9P1W9). As to the kind of experiment: Kinase Assay: Pim-2 kinase assay—20 μL reactions were run in white 384 well polystyrene plates dotted with 0.8 μL compound/DMSO in the assay buffer (50 mM Tris, pH 7.5, 0.01% Tween-20, 5 mM mgCl2, 0.01% BSA, 5 mM DTT), containing 0.05 μM Fluorescein-labeled CREBtide peptide substrate (Invitrogen PV3508), 1 mM ATP, and 1 nM enzyme (Invitrogen PV3649) for 2 h at 25° C. Reactions were stopped by addition of 10 μL TR-FRET Dilution Buffer (Invitrogen PV3574) with 30 mM EDTA and 1.5 nM LanthaScreen Tb-CREB pSer133 antibody (Invitrogen PV3566). After 30 min. incubation at room temperature, plates were read on a PHERAstar FS plate reader (BMG Labtech). For orientation: In TR-FRET formats the signal depends on donor and acceptor labels being close together.
Serine/threonine-protein kinase pim-2, sequence (Q9P1W9 whole entry): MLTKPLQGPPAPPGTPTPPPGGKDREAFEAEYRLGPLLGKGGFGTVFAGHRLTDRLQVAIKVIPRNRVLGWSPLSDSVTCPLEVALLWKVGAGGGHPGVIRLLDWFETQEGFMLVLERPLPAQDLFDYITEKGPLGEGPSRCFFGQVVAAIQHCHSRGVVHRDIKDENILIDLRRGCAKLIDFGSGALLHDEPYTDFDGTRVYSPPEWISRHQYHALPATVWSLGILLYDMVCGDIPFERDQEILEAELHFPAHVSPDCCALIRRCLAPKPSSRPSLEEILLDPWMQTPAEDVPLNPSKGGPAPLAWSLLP

Serine/threonine-protein kinase pim-1, sequence (P11309 whole entry): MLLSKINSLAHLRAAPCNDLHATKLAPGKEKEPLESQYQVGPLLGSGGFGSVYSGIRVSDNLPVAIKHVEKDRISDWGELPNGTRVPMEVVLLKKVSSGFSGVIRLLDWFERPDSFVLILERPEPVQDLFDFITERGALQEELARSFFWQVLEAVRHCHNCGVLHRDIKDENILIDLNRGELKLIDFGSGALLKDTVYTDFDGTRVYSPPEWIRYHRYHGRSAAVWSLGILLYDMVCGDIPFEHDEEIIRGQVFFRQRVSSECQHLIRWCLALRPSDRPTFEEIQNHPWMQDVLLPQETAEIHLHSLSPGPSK

Take `C[C@@H]1C[C@H](N)C[C@H](c2ccncc2NC(=O)c2ccc(F)c3cc(-c4c(F)cccc4F)cnc23)C1`: the IC50 (commonly the point on the concentration scale where inhibition reaches its midpoint) in assay [1] was less than 0.01 µM; in assay [2] it was less than 0.01 µM; in assay [3], less than 0.1 µM.
